These compounds were tested on HEK293 cells (assay: Preliminary screening as mRNA vectors, EGFP mRNA transfection of HEK293 cells). Settings: EGFP mRNA 50 ng per well, 96-well plates; percentage of GFP fluorescent cells relative to total number of cells (Hoechst).
Type: cell-based
In short: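 HEK293 cells in DMEM plus 10% FBS transfected in 96-well format with 50 ng EGFP mRNA per well; Lipofectamine2000 served as positive control. Read-out is the percentage of GFP-fluorescent cells among total cells, counted by Hoechst nuclear stain.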

SMILES | Absolute mRNA transfection efficiency in HEK293 cells [%]
CCCCCCCCCCCCCCCCCCSc1nc(NCCCCCCC)nc(NCCN(CC)CC)n1 [Compound D7S18N7] | 6.5
CCCCCCCCCCCCCCCCCCNc1nc(NCCCN(C)C)nc(SCCCCCCCCCCC)n1 [Compound D6S11N18] | 14.6
CCCCCCCCCCSc1nc(NCCN(C)C)nc(SCCCCCCC)n1 [Compound D1S7S10] | 5.6
CCCCCCCCCCCCNc1nc(NCCN(CC)CC)nc(SCCCCCC)n1 [Compound D7S6N12] | 1.4
CCCCCCCCCCCCCCCCSc1nc(NCCCN2CCN(C)CC2)nc(SCCCCCC)n1 [Compound D9S6S16] | 38.2
CCCCCCCCCCCCSc1nc(NCCN(CC)CC)nc(N(CCCCCCCCCCCC)CCCCCCCCCCCC)n1 [D7S12^2N12] | 1.9
CCCCCCCCCCCCCCCCNc1nc(NCCN2CCCC2)nc(SCCCCCCCCCCCCCCCC)n1 [Compound D3S16N16] | 1.1
CCCCCCCCCCCCCCSc1nc(NCCCCCC)nc(NCCN(C)C)n1 [Compound D1S14N6] | 29.1
CCCCCCCCCCCCCCSc1nc(NCCN(CC)CC)nc(N(CCCCCCCCCCCC)CCCCCCCCCCCC)n1 [D7S14^2N12] | 0.1
CCCCCCCCCCCCCCCCNc1nc(NCCN2CCCCC2)nc(SCCCCCCC)n1 [Compound D4S7N16] | 1.3
CCCCCCCCNc1nc(NCCN2CCOCC2)nc(SCCCCCCC)n1 [Compound D2S7N8] | 1.0
CCCCCCCCCCCCCCCNc1nc(NCCN2CCN(C)CC2)nc(SCCCCCCCCCCCCCC)n1 [Compound D5S14N15] | 0.3
CCCCCCCCCCCCNc1nc(NCCN2CCCC2)nc(SCCCCCCCCCCC)n1 [Compound D3S11N12] | 40.5
CCCCCCCCCCCCCCCSc1nc(NCCCCCC)nc(NCCN2CCN(C)CC2)n1 [Compound D5S15N6] | 45.9
CCCCCCCCCCCCSc1nc(NCCCN2CCOCC2)nc(N(CCCCCCCCCCCC)CCCCCCCCCCCC)n1 [D8S12^2N12] | 3.4
CCCCCCCCCCCCCCCSc1nc(NCCCCCC)nc(NCC2CCN(C)CC2)n1 [Compound D10S15N6] | 18.4
CCCCCCCCCCCCCCCCSc1nc(NCCCCCCC)nc(NCCCN(C)C)n1 [Compound D6S16N7] | 88.3
CCCCCCCCCCSc1nc(NCCCCCCCC)nc(NCCN2CCCCC2)n1 [Compound D4S10N8] | 0.1
CCCCCCCCCCCSc1nc(NCCCCCCCCC)nc(NCCN2CCN(C)CC2)n1 [Compound D5S11N9] | 41.5
CCCCCCCCCCSc1nc(NCCCN2CCOCC2)nc(SCCCCCCCC)n1 [Compound D8S8S10] | 40.9
CCCCCCCCCCCCNc1nc(NCC2CCN(C)CC2)nc(SCCCCCCCCCC)n1 [Compound D10S10N12] | 15.5
CCCCCCCCCCCCCCCCCCNc1nc(NCCCN(C)C)nc(SCCCCCCCCCCCCCCC)n1 [Compound D6S15N18] | 1.9
CCCCCCCCSc1nc(NCCN2CCCC2)nc(SCCCCCCCC)n1 [Compound D3S8S8] | 26.1

SMILES | Absolute mRNA transfection efficiency in HEK293 cells [%]
CCCCCCCCCCCCCCCNc1nc(NCCN(C)C)nc(SCCCCCCC)n1 [Compound D1S7N15] | 21.3
CCCCCCCCCCCSc1nc(NCCCCCCCCC)nc(NCCCN2CCOCC2)n1 [Compound D8S11N9] | 1.6
CCCCCCCCNc1nc(NCCN2CCN(C)CC2)nc(SCCCCCCCC)n1 [Compound D5S8N8] | 1.3
CCCCCCCCCCCCCCSc1nc(NCCCCCCCC)nc(NCCN2CCN(C)CC2)n1 [Compound D5S14N8] | 65.6
CCCCCCCCCCCCCCCCCCNc1nc(NCCN2CCN(C)CC2)nc(SCCCCCCCC)n1 [Compound D5S8N18] | 29.9
CCCCCCCCCCCCCCCSc1nc(NCCN2CCCCC2)nc(SCCCCCC)n1 [Compound D4S6S15] | 2.0
CCCCCCCCCCCCNc1nc(NCCN2CCN(C)CC2)nc(SCCCCCCC)n1 [Compound D5S7N12] | 23.0
CCCCCCCCCCCSc1nc(NCCCCCCCC)nc(NCCN2CCN(C)CC2)n1 [Compound D5S11N8] | 36.2
CCCCCCCCCCCCSc1nc(NCCN2CCCCC2)nc(N(CCCCCCCCCCCC)CCCCCCCCCCCC)n1 [D4S12^2N12] | 0.5
CCCCCCCCCCCCCCCCCCSc1nc(NCCCCCC)nc(NCCN(CC)CC)n1 [Compound D7S18N6] | 19.5
CCCCCCCCCCCCCCCCNc1nc(NCCN2CCOCC2)nc(SCCCCCCCCC)n1 [Compound D2S9N16] | 1.4
CCCCCCCCCCCCN(CCCCCCCCCCCC)c1nc(NCCN2CCOCC2)nc(SCCCCCCCCCC)n1 [D2S10^2N12] | 0.0
CCCCCCCCCCCCCCCCCCSc1nc(NCCCCCCC)nc(NCCN(C)C)n1 [Compound D1S18N7] | 63.0
CCCCCCCCCCSc1nc(NCCCCCCCCC)nc(NCCCN2CCN(C)CC2)n1 [Compound D9S10N9] | 10.5
CCCCCCCCCCCCNc1nc(NCCN(C)C)nc(SCCCCCCC)n1 [Compound D1S7N12] | 5.4
CCCCCCCCCCCCCCCSc1nc(NCCN(CC)CC)nc(N(CCCCCCCCCCCC)CCCCCCCCCCCC)n1 [D7S15^2N12] | 1.8
CCCCCCCCCCCCCCCCNc1nc(NCCN(CC)CC)nc(SCCCCCCCCCCCCCC)n1 [Compound D7S14N16] | 2.7
CCCCCCCCCCCCCCCCNc1nc(NCCCN2CCOCC2)nc(SCCCCCCCCC)n1 [Compound D8S9N16] | 2.1
CCCCCCCCCCCCCCCCNc1nc(NCCN(C)C)nc(SCCCCCCC)n1 [Compound D1S7N16] | 29.5
CCCCCCCCCCCCCCCCCCSc1nc(NCCCCCCCCCCC)nc(NCCN(CC)CC)n1 [Compound D7S18N11] | 10.7
CCCCCCCCCCCCCCCCNc1nc(NCCN2CCCCC2)nc(SCCCCCCCCCCCCCC)n1 [Compound D4S14N16] | 1.4
CCCCCCCNc1nc(NCCN2CCCCC2)nc(SCCCCCC)n1 [Compound D4S6N7] | 0.0
CCCCCCCCCCCCCCCSc1nc(NCCCCCCC)nc(NCCCN2CCOCC2)n1 [Compound D8S15N7] | 2.2

SMILES | Absolute mRNA transfection efficiency in HEK293 cells [%]
CCCCCCCSc1nc(NCCCCCC)nc(NCCN2CCCC2)n1 [Compound D3S7N6] | 5.8
CCCCCCCCCCCSc1nc(NCCCN2CCOCC2)nc(SCCCCCC)n1 [Compound D8S6S11] | 1.5
CCCCCCCCCCCCCCCCCCNc1nc(NCCN2CCCC2)nc(SCCCCCCCCCCCCCCCCCC)n1 [Compound D3S18N18] | 0.1
CCCCCCCCCCCCCCSc1nc(NCCCN2CCN(C)CC2)nc(SCCCCCCC)n1 [Compound D9S7S14] | 34.5
CCCCCCCCCCCCCCCCCCNc1nc(NCC2CCN(C)CC2)nc(SCCCCCCCCCC)n1 [Compound D10S10N18] | 6.0
CCCCCCCCCCCNc1nc(NCCN(C)C)nc(SCCCCCCCCCCC)n1 [Compound D1S11N11] | 24.7
CCCCCCCCCCCCCCCNc1nc(NCCN(C)C)nc(SCCCCCCCC)n1 [Compound D1S8N15] | 23.8
CCCCCCCCCNc1nc(NCCN2CCN(C)CC2)nc(SCCCCCCCCC)n1 [Compound D5S9N9] | 38.2
CCCCCCCCCCCCCCCCSc1nc(NCCCN2CCN(C)CC2)nc(SCCCCCCC)n1 [Compound D9S7S16] | 9.2
CCCCCCCCSc1nc(NCCCCCCC)nc(NCCN2CCN(C)CC2)n1 [Compound D5S8N7] | 2.5
CCCCCCCCCCCCCCCCSc1nc(NCCCCCC)nc(NCCCN(C)C)n1 [Compound D6S16N6] | 96.4
CCCCCCCCCCCCCCCCCCSc1nc(NCCCCCCC)nc(NCCCN2CCOCC2)n1 [Compound D8S18N7] | 3.9
CCCCCCCCCCCCCCCCCCSc1nc(NCCN2CCCC2)nc(SCCCCCC)n1 [Compound D3S6S18] | 36.8
CCCCCCCCCCCCCCCNc1nc(NCC2CCN(C)CC2)nc(SCCCCCCCCCCCCCC)n1 [Compound D10S14N15] | 3.3
CCCCCCCCCCCCCCCSc1nc(NCC2CCN(C)CC2)nc(SCCCCCCC)n1 [Compound D10S7S15] | 90.4
CCCCCCCCSc1nc(NCCCCCC)nc(NCC2CCN(C)CC2)n1 [Compound D10S8N6] | 0.4
CCCCCCCCCCCCCNc1nc(NCCCN(C)C)nc(SCCCCCCCCCCC)n1 [Compound D6S11N13] | 10.0
CCCCCCCCCCCNc1nc(NCCN(C)C)nc(SCCCCCCCCCC)n1 [Compound D1S10N11] | 6.2
CCCCCCCSc1nc(NCCN2CCN(C)CC2)nc(SCCCCCC)n1 [Compound D5S6S7] | 10.0
CCCCCCCCCCCCCCSc1nc(NCCCCCCCCCCC)nc(NCCN2CCCC2)n1 [Compound D3S14N11] | 30.9
CCCCCCCCCCCCCCCCCCNc1nc(NCCN2CCOCC2)nc(SCCCCCCCC)n1 [Compound D2S8N18] | 3.7

Source: patent US20230123334A1, “AMINO LIPID COMPOUND, PREPARATION METHOD THEREFOR, AND APPLICATION THEREOF” (SHENZHEN SHENXIN BIOTECHNOLOGY CO., LTD., priority 2020, published 2023)
